Results from patent US20040248859A1, “Medicinal compositions for treating secondary parathyroid hyperfunction and remedies for cardiovascular complications in association with treatment for secondary parathyroid hyperfunction” (priority 2001, published 2004).

Tests used:
[1] = test system: 5/6 nephrectomized rats (kidney failure model with 2HPT); assay: Ca and Pi in serum (serum Ca×Pi product) of 5/6 nephrectomized rats; format: in vivo, rat; conditions: for serum Ca×Pi product over the SNX control group: three times a week, 7 administrations
Excerpt: (§1) Rats with 5/6 nephrectomy (5/6 nephrectomized rats) were used as an experimental model to examine the agent of the present invention for its effect on cardiovascular complications. Such 5/6 nephrectomized rats are widely used as an experimental nephritis model with 2HPT (Ichikawa et al., Nephrology, vol. 4, pp. 391-395, 1998).
(§2) Seven-week-old male SD rats (Japan SLC, Inc.) were subjected to 5/6 nephrectomy according to the method of Platt et al. (Platt R. et al., Clin. Sci. 11, 217-231, 1952) to remove the whole of the right kidney and 2/3 of the left kidney. The rats were then allowed to rest for 10 weeks to create a kidney failure model with 2HPT.
(§3) The nephrectomized rats were divided into 4 test groups: OCT 1.25 μg/kg group (8 rats), OCT 6.25 μg/kg group (8 rats), 1,25(OH)2D3 0.125 μg/kg group (8 rats) and 1,25(OH)2D3 0.625 μg/kg group (8 rats).
(§4) Starting at 10 weeks after surgery, the rats of each group were administered with a given dose of OCT or 1,25-dihydroxyvitamin D3 (each dissolved in phosphate buffer, pH 6.52) via the tail vein. Administration was conducted three times a week for a total of 7 administration (i.e., on Monday, Wednesday, Friday, Monday, Wednesday, Friday and Monday). Twenty-four hours after the last administration, the blood was collected from the abdominal descending aorta of each rat under ether anesthesia. The rats were then sacrificed by exsanguination and the heart and aorta were excised from each rat.
(§5) Six rats of sham-operated (Sham control) group were subjected to renal decapsulation alone instead of 5/6 nephrectomy and then treated in the same manner as used for the test groups, except that phosphate buffer (Ph 6.52) was administered instead of OCT or 1,25-dihydroxyvitamin D3. Likewise, 9 rats of SNX control group were treated in the same manner as used for the test groups, except that phosphate buffer (pH 6.52) was administered instead of OCT or 1,25-dihydroxyvitamin D3.
2. Ca and Pi in serum After serum was separated from the collected blood, Ca and Pi contained in the serum were measured with a Hitachi 7170-E autoanalyzer using an Autosera reagent (Daiichi Pure Chemicals Co., Ltd.) to determine the serum Ca×Pi product for each rat.
(§6) The relationship between Sham control group and SNX control group was analyzed by unpaired t-test. The relationship between SNX control group and each OCT- or 1,25(OH)2D3-administered group was analyzed by Dunnett's multiple comparison test.

[2] = test system: 5/6 nephrectomized rats (kidney failure model with 2HPT); assay: Ca and Pi contents in individual organs (aorta and heart) of 5/6 nephrectomized rats; format: in vivo, rat
Excerpt: as §1, §2, §3, §4, §5
Each heart and aorta were lyophilized for 24 hours in a FREEZE DRYER FD-5N (trade name, EYELA) and then treated for 48 hours with a chloroform/methanol solution (chloroform:methanol=2:1, special-reagent-grade chloroform and methanol were both purchased from Junsei Chemical Co., Ltd.). Subsequently, each organ was dehydrated for 3 hours with acetone (special reagent grade, Junsei Chemical Co., Ltd.) and then allowed to stand at room temperature for 24 hours. After delipidization and dehydration, each organ was transferred to a crucible and weighed to determine dry weight (Mettler). Ashing was carried out in a muffle furnace KDF S90 (trade name, Denken Co., Ltd., Kyoto, Japan) at 900° C. for 12 hours. The ashed sample was mixed with […] hydrochloric acid (1.0 mL), allowed to stand for 3 hours to dissolve sufficiently, and then collected in a polypropylene tube. The crucible was washed with purified water (1.0 mL), which was then also collected in the tube. Each sample was stored at 4° C. until measurement. Ca and Pi were measured with a Hitachi 7170-E autoanalyzer to calculate the Ca and Pi contents per gram of each organ.
as §6

[3] = test system: 5/6 nephrectomized rats (kidney failure model with 2HPT); assay: Parathyroid hormone levels in blood (serum PTH, radioimmunoassay) of 5/6 nephrectomized rats; format: in vivo, rat; conditions: for effect on serum PTH levels: all doses (OCT 1.25 and 6.25 μg/kg, 1,25(OH)2D3 0.125 and 0.625 μg/kg), versus SNX control
Excerpt: as §1, §2, §3
as §4, with “rat. […]” for “rat.”
After serum was separated from the collected blood, the level of parathyroid hormone (PTH) contained in the serum was measured with a commercially available radioimmunoassay kit (Immutopics, Inc., USA).
as §6

[4] = in vivo; cited from earlier work
[5] = 5/6 nephrectomized rats, via tail vein
[6] = 1,25(OH)2D3 0.125 μg/kg group versus OCT 6.25 μg/kg group (almost the same serum Ca×Pi product)

blood calcium levels ([1]; rat, in vivo) | deposition of Ca and Pi in the aorta and heart, OCT-administered groups versus 1,25(OH)2D3-administered groups ([2]; rat, in vivo) | Structure (SMILES) | serum Ca×Pi product over the SNX control group ([1]; 0.125 μg/kg via tail vein) | serum Ca×Pi product over the SNX control group ([1]; 0.625 μg/kg via tail vein, 24 h after last administration, p<0.001) | minimum dose required to produce an elevating action on Ca×Pi product [1, 5] | serum Ca×Pi product, comparison of the two groups ([1]; OCT 6.25 μg/kg group versus 1,25(OH)2D3 0.125 μg/kg group) | Ca content in the aorta over the SNX control group ([2]; 0.125 and 0.625 μg/kg, p<0.001) | Ca content in the heart over the SNX control group ([2]; 0.125 and 0.625 μg/kg, p<0.001) | Pi content in the aorta over the SNX control group ([2]; 0.125 and 0.625 μg/kg, p<0.001) | Pi content in the heart over the SNX control group ([2]; 0.125 and 0.625 μg/kg, p<0.001) | deposition of Ca in the aorta as compared to OCT [2, 6] | deposition of Pi in the aorta as compared to OCT [2, 6] | deposition of Pi in the heart as compared to OCT ([2]; 1,25(OH)2D3 0.125 μg/kg group versus OCT 6.25 μg/kg group, p<0.01) | deposition of Ca in the heart as compared to OCT ([2]; 1,25(OH)2D3 0.125 μg/kg group versus OCT 6.25 μg/kg group, p<0.05) | dose at which the therapeutic effect on secondary hyperparathyroidism (decreasing effect on PTH levels) can be produced [3, 5] | effect on serum PTH levels [3] | blood half-life [4]
– | – | C=C1/C(=C\C=C2/CCC[C@]3(C)[C@@H]([C@H](C)CCCC(C)(C)O)CC[C@@H]23)C[C@@H](O)C[C@@H]1O [1,25-dihydroxyvitamin D3] | no significant elevation | significant elevation | 0.625 µg/kg | almost the same level | dose-dependent significant increases | dose-dependent significant increases | dose-dependent significant increases | dose-dependent significant increases | apparently higher deposition | apparently higher deposition | significantly higher deposition | significantly higher deposition | 0.125 µg/kg | decreasing effect on PTH levels at all doses | ≥ 1 h
does not cause increase | significantly lower deposition | C=C1/C(=C\C=C2/CCC[C@]3(C)[C@@H]([C@H](C)OCCC(C)(C)O)CC[C@@H]23)C[C@@H](O)C[C@@H]1O [OCT, 1α,3β-dihydroxy-20S-(3-hydroxy-3-methylbutyloxy)-9,10-seco-5,7,10(19)-pregnatriene] | – | – | – | – | – | – | – | – | – | – | – | – | – | decreasing effect on PTH levels at all doses | about 20 minutes
